Measured values reported in PubChem BioAssay (NCI).
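Interpolation was linear, between the two tested concentrations surrounding the appropriate level; five concentrations were tested over 48 hours in 96-well plates. TGI denotes the concentration required for complete inhibition of growth.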

How the values were obtained:
Assay in all cases: growth of human tumour cells (NCI), 48 h
KM20L2 colon = tested on: KM20L2 colon
COLO 205 colon = tested on: COLO 205 colon
MOLT-4 leukemia = tested on: MOLT-4 leukemia
A549 NSCLC = tested on: A549 NSCLC
HCT-15 colon = tested on: HCT-15 colon
CCRF-CEM leukemia = tested on: CCRF-CEM leukemia
SK-MEL-2 melanoma = tested on: SK-MEL-2 melanoma
EKVX NSCLC = tested on: EKVX NSCLC
XF 498 CNS = tested on: XF 498 CNS
HT29 colon = tested on: HT29 colon
SF-268 CNS = tested on: SF-268 CNS
K-562 leukemia = tested on: K-562 leukemia
HOP-62 NSCLC = tested on: HOP-62 NSCLC
UACC-257 melanoma = tested on: UACC-257 melanoma
DMS 114 small cell lung = tested on: DMS 114 small cell lung
SR leukemia = tested on: SR leukemia
NCI-H23 lung = tested on: NCI-H23 lung
SK-MEL-5 melanoma = tested on: SK-MEL-5 melanoma
LOX IMVI melanoma = tested on: LOX IMVI melanoma
U251 CNS = tested on: U251 CNS
RPMI-8226 leukemia = tested on: RPMI-8226 leukemia
HL-60(TB) leukemia = tested on: HL-60(TB) leukemia
SNB-75 CNS = tested on: SNB-75 CNS
SN12C renal = tested on: SN12C renal
M19-MEL melanoma = tested on: M19-MEL melanoma
LXFL 529 NSCLC = tested on: LXFL 529 NSCLC
UACC-62 melanoma = tested on: UACC-62 melanoma
HOP-18 NSCLC = tested on: HOP-18 NSCLC
SK-OV-3 ovarian = tested on: SK-OV-3 ovarian
786-0 renal = tested on: 786-0 renal
OVCAR-8 ovarian = tested on: OVCAR-8 ovarian
RXF 393 renal = tested on: RXF 393 renal
SNB-19 CNS = tested on: SNB-19 CNS
SW-620 colon = tested on: SW-620 colon
MALME-3M melanoma = tested on: MALME-3M melanoma
M14 melanoma = tested on: M14 melanoma
SNB-78 CNS = tested on: SNB-78 CNS
KM12 colon = tested on: KM12 colon
SK-MEL-28 melanoma = tested on: SK-MEL-28 melanoma
UO-31 renal = tested on: UO-31 renal
OVCAR-4 ovarian = tested on: OVCAR-4 ovarian
NCI-H226 lung = tested on: NCI-H226 lung
NCI-H460 lung = tested on: NCI-H460 lung
ACHN renal = tested on: ACHN renal
NCI-H522 lung = tested on: NCI-H522 lung
DMS 273 small cell lung = tested on: DMS 273 small cell lung
SF-295 CNS = tested on: SF-295 CNS
TK-10 renal = tested on: TK-10 renal
HCT-116 colon = tested on: HCT-116 colon
HCC-2998 colon = tested on: HCC-2998 colon
DLD-1 colon = tested on: DLD-1 colon
RXF-631 renal = tested on: RXF-631 renal
CAKI-1 renal = tested on: CAKI-1 renal
HOP-92 NSCLC = tested on: HOP-92 NSCLC
SF-539 CNS = tested on: SF-539 CNS
IGROV1 ovarian = tested on: IGROV1 ovarian
OVCAR-5 ovarian = tested on: OVCAR-5 ovarian
OVCAR-3 ovarian = tested on: OVCAR-3 ovarian

## CC(C)NC1CCCCC2c3ccccc3C12O (configuration not stated)
KM20L2 colon
  TGI: > 100 µM
COLO 205 colon
  TGI: > 100 µM
MOLT-4 leukemia
  TGI: > 100 µM
A549 NSCLC
  TGI: > 100 µM
HCT-15 colon
  TGI: > 100 µM
CCRF-CEM leukemia
  TGI: > 100 µM
SK-MEL-2 melanoma
  TGI: > 100 µM
EKVX NSCLC
  TGI: > 100 µM
XF 498 CNS
  TGI: > 100 µM
HT29 colon
  TGI: > 100 µM
SF-268 CNS
  TGI: > 100 µM
K-562 leukemia
  TGI: > 100 µM
HOP-62 NSCLC
  TGI: > 100 µM
UACC-257 melanoma
  TGI: > 100 µM
DMS 114 small cell lung
  TGI: > 100 µM
SR leukemia
  TGI: > 100 µM
NCI-H23 lung
  TGI: > 100 µM
SK-MEL-5 melanoma
  TGI: > 100 µM
LOX IMVI melanoma
  TGI: > 100 µM
U251 CNS
  TGI: > 100 µM
RPMI-8226 leukemia
  TGI: > 100 µM
HL-60(TB) leukemia
  TGI: > 100 µM
SNB-75 CNS
  TGI: > 100 µM
SN12C renal
  TGI: > 100 µM
M19-MEL melanoma
  TGI: > 100 µM
LXFL 529 NSCLC
  TGI: > 100 µM
UACC-62 melanoma
  TGI: > 100 µM
HOP-18 NSCLC
  TGI: > 100 µM
SK-OV-3 ovarian
  TGI: > 100 µM
786-0 renal
  TGI: > 100 µM
OVCAR-8 ovarian
  TGI: > 100 µM
RXF 393 renal
  TGI: > 100 µM
SNB-19 CNS
  TGI: > 100 µM
SW-620 colon
  TGI: > 100 µM
MALME-3M melanoma
  TGI: > 100 µM
M14 melanoma
  TGI: > 100 µM
SNB-78 CNS
  TGI: > 100 µM
KM12 colon
  TGI: > 100 µM
SK-MEL-28 melanoma
  TGI: > 100 µM
UO-31 renal
  TGI: > 100 µM
OVCAR-4 ovarian
  TGI: > 100 µM
NCI-H226 lung
  TGI: > 100 µM
NCI-H460 lung
  TGI: > 100 µM
ACHN renal
  TGI: > 100 µM
NCI-H522 lung
  TGI: > 100 µM
DMS 273 small cell lung
  TGI: > 100 µM
SF-295 CNS
  TGI: > 100 µM
TK-10 renal
  TGI: > 100 µM
HCT-116 colon
  TGI: > 100 µM

## CCCN(CCC)C1CC(n2cc(C)c(=O)[nH]c2=O)OC1CO (configuration not stated)
HCC-2998 colon
  TGI: > 100 µM
COLO 205 colon
  TGI: > 100 µM
MOLT-4 leukemia
  TGI: > 100 µM
CCRF-CEM leukemia
  TGI: > 100 µM
SK-MEL-2 melanoma
  TGI: > 100 µM
SF-268 CNS
  TGI: > 100 µM
DLD-1 colon
  TGI: > 100 µM
RXF-631 renal
  TGI: > 100 µM
K-562 leukemia
  TGI: > 100 µM
HOP-62 NSCLC
  TGI: > 100 µM
DMS 114 small cell lung
  TGI: > 100 µM
SR leukemia
  TGI: > 100 µM
NCI-H23 lung
  TGI: > 100 µM
CAKI-1 renal
  TGI: > 100 µM
RPMI-8226 leukemia
  TGI: > 100 µM
HL-60(TB) leukemia
  TGI: > 100 µM
SNB-75 CNS
  TGI: > 100 µM
SN12C renal
  TGI: > 100 µM
M19-MEL melanoma
  TGI: > 100 µM
LXFL 529 NSCLC
  TGI: > 100 µM
HOP-92 NSCLC
  TGI: > 100 µM
UACC-62 melanoma
  TGI: > 100 µM
SF-539 CNS
  TGI: > 100 µM
SK-OV-3 ovarian
  TGI: > 100 µM
786-0 renal
  TGI: > 100 µM
IGROV1 ovarian
  TGI: > 100 µM
MALME-3M melanoma
  TGI: > 100 µM
M14 melanoma
  TGI: > 100 µM
SNB-78 CNS
  TGI: > 100 µM
SK-MEL-28 melanoma
  TGI: > 100 µM
UO-31 renal
  TGI: > 100 µM
OVCAR-4 ovarian
  TGI: > 100 µM
NCI-H226 lung
  TGI: > 100 µM
NCI-H460 lung
  TGI: > 100 µM
ACHN renal
  TGI: > 100 µM
NCI-H522 lung
  TGI: > 100 µM
DMS 273 small cell lung
  TGI: > 100 µM
HCT-116 colon
  TGI: > 100 µM

## NCCNCCNCc1c2ccccc2c(CNCCNCCN)c2ccccc12
HCC-2998 colon
  TGI: > 100 µM
KM20L2 colon
  TGI: > 100 µM
COLO 205 colon
  TGI: > 100 µM
MOLT-4 leukemia
  TGI: > 100 µM
A549 NSCLC
  TGI: > 100 µM
HCT-15 colon
  TGI: > 100 µM
CCRF-CEM leukemia
  TGI: > 100 µM
SK-MEL-2 melanoma
  TGI: > 100 µM
EKVX NSCLC
  TGI: > 100 µM
XF 498 CNS
  TGI: > 100 µM
HT29 colon
  TGI: > 100 µM
SF-268 CNS
  TGI: > 100 µM
DLD-1 colon
  TGI: > 100 µM
K-562 leukemia
  TGI: > 100 µM
OVCAR-5 ovarian
  TGI: > 100 µM
HOP-62 NSCLC
  TGI: > 100 µM
UACC-257 melanoma
  TGI: > 100 µM
DMS 114 small cell lung
  TGI: > 100 µM
SR leukemia
  TGI: > 100 µM
NCI-H23 lung
  TGI: > 100 µM
CAKI-1 renal
  TGI: > 100 µM
SK-MEL-5 melanoma
  TGI: > 100 µM
LOX IMVI melanoma
  TGI: > 100 µM
OVCAR-3 ovarian
  TGI: > 100 µM
U251 CNS
  TGI: > 100 µM
RPMI-8226 leukemia
  TGI: > 100 µM
HL-60(TB) leukemia
  TGI: > 100 µM
SN12C renal
  TGI: > 100 µM
M19-MEL melanoma
  TGI: > 100 µM
LXFL 529 NSCLC
  TGI: > 100 µM
HOP-92 NSCLC
  TGI: 84.1 µM
UACC-62 melanoma
  TGI: > 100 µM
SF-539 CNS
  TGI: > 100 µM
HOP-18 NSCLC
  TGI: > 100 µM
SK-OV-3 ovarian
  TGI: > 100 µM
786-0 renal
  TGI: > 100 µM
OVCAR-8 ovarian
  TGI: > 100 µM
RXF 393 renal
  TGI: > 100 µM
IGROV1 ovarian
  TGI: > 100 µM
SW-620 colon
  TGI: > 100 µM
MALME-3M melanoma
  TGI: > 100 µM
M14 melanoma
  TGI: > 100 µM
SNB-78 CNS
  TGI: > 100 µM
KM12 colon
  TGI: > 100 µM
SK-MEL-28 melanoma
  TGI: > 100 µM
UO-31 renal
  TGI: > 100 µM
OVCAR-4 ovarian
  TGI: > 100 µM
NCI-H226 lung
  TGI: > 100 µM
NCI-H460 lung
  TGI: > 100 µM
ACHN renal
  TGI: > 100 µM
SF-295 CNS
  TGI: > 100 µM
TK-10 renal
  TGI: > 100 µM
HCT-116 colon
  TGI: > 100 µM

## CC(C)N1CCOC(c2ccc(O)c(O)c2)C1 (configuration not stated)
HCC-2998 colon
  TGI: > 100 µM
KM20L2 colon
  TGI: > 100 µM
COLO 205 colon
  TGI: > 100 µM
MOLT-4 leukemia
  TGI: > 100 µM
A549 NSCLC
  TGI: > 100 µM
HCT-15 colon
  TGI: > 100 µM
CCRF-CEM leukemia
  TGI: > 100 µM
SK-MEL-2 melanoma
  TGI: > 100 µM
EKVX NSCLC
  TGI: > 100 µM
XF 498 CNS
  TGI: > 100 µM
HT29 colon
  TGI: > 100 µM
SF-268 CNS
  TGI: > 100 µM
DLD-1 colon
  TGI: > 100 µM
RXF-631 renal
  TGI: > 100 µM
K-562 leukemia
  TGI: > 100 µM
OVCAR-5 ovarian
  TGI: > 100 µM
HOP-62 NSCLC
  TGI: > 100 µM
UACC-257 melanoma
  TGI: > 100 µM
DMS 114 small cell lung
  TGI: > 100 µM
NCI-H23 lung
  TGI: > 100 µM
CAKI-1 renal
  TGI: > 100 µM
SK-MEL-5 melanoma
  TGI: > 100 µM
LOX IMVI melanoma
  TGI: > 100 µM
OVCAR-3 ovarian
  TGI: > 100 µM
RPMI-8226 leukemia
  TGI: > 100 µM
HL-60(TB) leukemia
  TGI: > 100 µM
SNB-75 CNS
  TGI: > 100 µM
SN12C renal
  TGI: > 100 µM
M19-MEL melanoma
  TGI: > 100 µM
LXFL 529 NSCLC
  TGI: > 100 µM
HOP-92 NSCLC
  TGI: > 100 µM
UACC-62 melanoma
  TGI: > 100 µM
SK-OV-3 ovarian
  TGI: > 100 µM
786-0 renal
  TGI: > 100 µM
OVCAR-8 ovarian
  TGI: > 100 µM
RXF 393 renal
  TGI: > 100 µM
IGROV1 ovarian
  TGI: > 100 µM
SNB-19 CNS
  TGI: > 100 µM
SW-620 colon
  TGI: > 100 µM
MALME-3M melanoma
  TGI: > 100 µM
M14 melanoma
  TGI: > 100 µM
SNB-78 CNS
  TGI: > 100 µM
KM12 colon
  TGI: > 100 µM
SK-MEL-28 melanoma
  TGI: > 100 µM
UO-31 renal
  TGI: > 100 µM
OVCAR-4 ovarian
  TGI: > 100 µM
NCI-H460 lung
  TGI: > 100 µM
ACHN renal
  TGI: > 100 µM
NCI-H522 lung
  TGI: > 100 µM
DMS 273 small cell lung
  TGI: > 100 µM
SF-295 CNS
  TGI: > 100 µM
TK-10 renal
  TGI: > 100 µM
